The text below walks through data of patent US4434171A, “Dibenzazepine derivatives, pharmaceutical compositions containing them, and pharmaceutical methods using them” (Sandoz Ltd., priority 1980, dated 1984).

The target in one assay is T1, 3H-Spiperone receptors (Bos taurus, UniProt P20288).
T1 construct: Fresh calf brain striatal tissue is homogenized; from tissue; host or cells: calf brain striatum membranes
Kind of assay: binding to 3H-Spiperone receptors, modified test from J. Leysen et al. Particulars: calf brain striatal tissue; 0.1 nM 3H-Spiperone; 5×10^-7 M Cinanserin; pH 7.7; 40 min at room temperature; read-out: IC50 in the neuroleptic test from J. Leysen (inhibition of specific Spiperone binding).

The test system of assay [1] is spontaneous motor activity in male mice. Kind of assay: inhibition of spontaneous motor activity in male mice (Caviezel and Baillod). The format is in vivo, mouse. Particulars: p.o. The method, then: In particular, the compounds of the invention are useful as neuroleptic agents in the treatment of e.g. psychotic disturbances such as schizophrenia, as indicated in standard tests, e.g. by an inhibition of spontaneous motor activity in male mice on p.o. administration of from about 1 to about 50 mg/kg animal body weight of the compounds e.g. in accordance with the principles of Caviezel and Baillod (Pharm. Acta Helv. (1958), 33, 465-484).

By IC50 is commonly meant the concentration at which inhibition is half-maximal.

T1 sequence (P20288 whole entry): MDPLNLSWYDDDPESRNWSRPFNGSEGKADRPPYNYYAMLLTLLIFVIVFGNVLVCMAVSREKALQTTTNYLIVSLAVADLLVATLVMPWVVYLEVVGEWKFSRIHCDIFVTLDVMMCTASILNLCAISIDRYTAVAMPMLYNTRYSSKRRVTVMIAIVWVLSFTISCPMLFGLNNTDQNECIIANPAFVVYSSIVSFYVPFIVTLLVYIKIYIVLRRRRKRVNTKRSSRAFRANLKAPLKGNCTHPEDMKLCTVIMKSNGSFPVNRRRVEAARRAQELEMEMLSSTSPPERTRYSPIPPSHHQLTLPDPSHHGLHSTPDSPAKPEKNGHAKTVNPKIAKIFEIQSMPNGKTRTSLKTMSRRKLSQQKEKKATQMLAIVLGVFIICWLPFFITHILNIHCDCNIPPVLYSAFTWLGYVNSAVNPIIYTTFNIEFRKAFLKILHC
Method for 3H-Spiperone receptors: Fresh calf brain striatal tissue is homogenized in a 25 fold volume of Tris buffer (50 mM, pH 7.7, 120 mM sodium chloride) and centrifuged. The pellets are resuspended in a 22 fold volume of the Tris buffer, incubated for 15 min. at 37° C., recentrifuged and the pellets resuspended in a 300 fold volume of the Tris buffer. […] After incubation for 40 min. at room temperature, the assay mixtures are rapidly filtered through Whatman GF/B filters and washed twice with 5 ml of ice cold Tris buffer and then scintillation-counted.

`CN1CCC(N2Cc3cc(Cl)ccc3Cc3ccccc32)CC1` [Example 1, 8-Chloro-5,6-dihydro-5-(1-methyl-4-piperidinyl)-11H-dibenz[b,e]azepine]: the IC50 at 3H-Spiperone receptors was found to be 100 nM. In addition, the “activity in inhibiting spontaneous motor activity, compared with Clozapine” value in assay [1] is “comparable to that of Clozapine”.
